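Each compound was tested at five concentrations against cells in 96-well plates for 48 hours. Abbreviation: GI50, concentration required for 50% inhibition of growth. TGI is the concentration that stops growth completely.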

Common to all, as to assay: NCI tumour cell line growth inhibition, 48 h
Test [1] relates to HS 578T breast.
Test [2] relates to MCF7 breast.
Test [3] relates to NCI/ADR-RES ovarian.
Test [4] concerns T-47D breast.

Regarding `CC1(C)OC2=C(CC1Br)C(=O)C(=O)c1ccccc12` (stereo not given), the GI50 in test [1] is 2.65 µM; in test [2] it was 1.68 µM; in test [3], 2.26 µM; in test [4], 2.03 µM. Moreover, the TGI in test [1] worked out at 7.69 µM; in test [2], 3.74 µM; in test [3], 5.22 µM; in test [4] it was 4.72 µM.

For `N#CC(C#N)=C1Nc2ccccc2S1`, the GI50 in test [1] is 34.1 µM; in test [2], 33.5 µM; in test [3], 23.8 µM; in test [4], 35.8 µM. For the same molecule, the TGI in test [1] was 85.9 µM; in test [2], > 100 µM; in test [3], 69.5 µM; in test [4] it was > 100 µM.

As to `COc1ccc(-c2onc(N)c2-c2cc(OC)c3c(c2)OCO3)cc1`, the GI50 in test [1] was 2.65 µM; in test [2], 0.932 µM; in test [3], 0.947 µM; in test [4] it was 4.65 µM. For the same molecule, the TGI was > 100 µM in test [1], > 100 µM in test [2], > 21.8 µM in test [3] and > 100 µM in test [4].

Turning to `O=C(O)c1nn(-c2ccccc2-c2n[nH]c(=O)[nH]c2=O)c(=O)[nH]c1=O`, the TGI in test [1], in test [2], in test [3] and in test [4] was > 100 µM in each case.

As to `O=C1c2cccc([N+](=O)[O-])c2C(=O)N1c1ncn[nH]1`, the TGI in test [1], in test [2], in test [3] and in test [4] was > 100 µM in each case.

In the case of `O=C(O)CCNC1CCCCC1`, the GI50 in test [1], in test [2], in test [3] and in test [4] was > 100 µM in each case. Also, the TGI in test [1], in test [2], in test [3] and in test [4] was > 100 µM throughout.

Regarding `CC[C@@]1(c2ccccc2)C2=C(CC(C)(C)CC2=O)Nc2[nH]ncc21`, the GI50 in test [1] was 96.4 µM; in test [2], > 100 µM; in test [3], > 100 µM; in test [4], > 100 µM. The TGI in test [1], in test [2], in test [3] and in test [4] was > 100 µM each time.

Take `CCOC1Oc2ccc(C)cc2C(=O)/C1=C\Nc1ccc(C(N)=O)cc1` (stereo not given): the GI50 in test [1] is 22.8 µM; in test [2], 25 µM; in test [3], 17.7 µM; in test [4], 6.13 µM. Further, the TGI is 64.4 µM in test [1], > 100 µM in test [2], 44.7 µM in test [3] and > 100 µM in test [4].

On to `O=C(CCc1nnc2sc(-c3ccc(Cl)cc3Cl)nn12)c1nc2ccccc2[nH]1`, for which the GI50 in test [1] is 2.23 µM; in test [2], 0.466 µM; in test [3] it was 1.42 µM; in test [4] it was 0.916 µM. Further, the TGI in test [1] came to 8.29 µM; in test [2], 2.45 µM; in test [3], 6.15 µM; in test [4], 2.92 µM.

As for `O=C1CCC(N2C(=O)c3ccccc3C2=O)C(=O)N1CO` (stereo not given), the GI50 in test [1] is > 100 µM; in test [2], 26.6 µM; in test [3], > 100 µM; in test [4], 78 µM. In addition, the TGI in test [1], in test [2], in test [3] and in test [4] was > 100 µM throughout.

`COC1(C)CP(=O)(OC(C)C)CC(C)=C1Cl` (stereo not given): the TGI in test [1] was > 100 µM; in test [2], 18.6 µM; in test [3], > 100 µM; in test [4], 55.6 µM.

On to `CCCCCCCC[C@@H](O)CC(=O)N[C@@H](CC(N)=O)C(=O)N[C@@H](CCC(N)=O)C(=O)N[C@@H](CC(=O)c1cc(C)cc(O)c1C(=O)c1c(O)cccc1O)CC(C)C`, for which the GI50 in test [1] was 3.46 µM; in test [2] it was 0.539 µM; in test [3], 39.6 µM; in test [4], 1.15 µM. The TGI in test [1] is 62 µM; in test [2], > 100 µM; in test [3], > 100 µM; in test [4], 4.51 µM.

With `C[N+]1=C(/C=C/c2ccc(O)c3ncccc23)C(C)(C)c2ccccc21`, the GI50 in test [1] is 2.14 µM; in test [2], 2.71 µM; in test [3], 0.634 µM; in test [4] it was 2.94 µM. Besides, the TGI in test [1] was found to be 8.14 µM; in test [2], 10.7 µM; in test [3], 6.08 µM; in test [4] it was 14.2 µM.

As to `COc1cc[nH]c1/C=C1\C(=O)Nc2ccc(F)c(C#CC3(O)CCNCC3)c21`, the GI50 in test [1] is 0.0754 µM; in test [2], 0.111 µM; in test [3], 2.11 µM; in test [4] it was 0.819 µM. Moreover, the TGI amounted to 1.54 µM in test [1], 1.9 µM in test [2], 8.24 µM in test [3] and 2.59 µM in test [4].

These data come from PubChem BioAssay (NCI).
